Source: US10934296B2, “4-imidazopyridazin-1-yl-benzamides as Btk inhibitors” (Merck Sharp & Dohme B.V., priority 2011, dated 2021)

What follows are molecules tested against Btk enzyme (His-Btk) (Homo sapiens (Human), UniProt Q06187) (assay: Btk enzyme activity, IMAP fluorescence polarization assay). Details: 60 min pre-incubation, 5 μM ATP, bin bounds in nM.
Sequence of Btk enzyme (His-Btk) (Q06187 whole entry): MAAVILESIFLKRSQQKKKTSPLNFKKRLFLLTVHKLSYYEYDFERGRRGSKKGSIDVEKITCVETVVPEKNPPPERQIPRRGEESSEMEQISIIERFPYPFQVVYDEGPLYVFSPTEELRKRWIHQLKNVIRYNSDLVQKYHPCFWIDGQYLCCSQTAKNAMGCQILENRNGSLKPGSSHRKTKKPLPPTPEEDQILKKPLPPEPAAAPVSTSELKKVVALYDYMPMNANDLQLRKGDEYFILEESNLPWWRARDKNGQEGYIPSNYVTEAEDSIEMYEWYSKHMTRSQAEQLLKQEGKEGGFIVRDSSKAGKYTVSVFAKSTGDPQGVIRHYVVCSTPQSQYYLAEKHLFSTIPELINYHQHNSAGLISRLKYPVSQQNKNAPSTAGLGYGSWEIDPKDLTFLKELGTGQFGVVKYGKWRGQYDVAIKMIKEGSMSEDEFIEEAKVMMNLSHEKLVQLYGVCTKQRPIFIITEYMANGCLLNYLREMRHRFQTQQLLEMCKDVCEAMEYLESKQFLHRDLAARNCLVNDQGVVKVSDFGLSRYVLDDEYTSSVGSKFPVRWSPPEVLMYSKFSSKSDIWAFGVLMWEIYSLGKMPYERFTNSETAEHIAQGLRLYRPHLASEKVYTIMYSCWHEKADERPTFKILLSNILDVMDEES
For `Nc1nccn2c([C@@H]3CCCN3C(=O)c3ccnc(Cl)n3)nc(-c3ccc(C(=O)Nc4ccccn4)cc3)c12` [Example 5, (S)-4-(8-amino-3-(1-(2-chloropyrimidine-4-carbonyl)pyrrolidin-2-yl)imidazo[1,5-a]pyrazin-1-yl)-N-(pyridin-2-yl)benzamide], the “EC50 Btk activity values” was under 100 nM. With `CC(C)c1ccnc(NC(=O)c2ccc(-c3nc([C@@H]4CCCN4C(=O)c4ccnc(Cl)n4)n4ccnc(N)c34)cc2)c1` [Example 70, (S)-4-(8-amino-3-(1-(2-chloropyrimidine-4-carbonyl)pyrrolidin-2-yl)imidazo[1,5-a]pyrazin-1-yl)-N-(4-isopropylpyridin-2-yl)benzamide] the “EC50 Btk activity values” was under 100 nM. In the case of `CCc1ccnc(NC(=O)c2ccc(-c3nc([C@@H]4CCCN4C(=O)/C=C/COC)n4ccnc(N)c34)cc2)c1` [Example 11, (S,E)-4-(8-Amino-3-(1-(4-methoxybut-2-enoyl)pyrrolidin-2-yl)-imidazo[1,5-a]pyrazin-1-yl)-N-(4-ethylpyridin-2-yl)benzamide], the “EC50 Btk activity values” is reported as under 100 nM. In the case of `COC/C=C/C(=O)N1CCC[C@H]1c1nc(-c2ccc(C(=O)Nc3nc4c(s3)CCCC4)cc2)c2c(N)nccn12` [Example 82, (S,E)-4-(8-amino-3-(1-(4-methoxybut-2-enoyl)pyrrolidin-2-yl)imidazo[1,5-a]pyrazin-1-yl)-N-(4,5,6,7-tetrahydrobenzo[d]thiazol-2-yl)benzamide], the “EC50 Btk activity values” is reported as under 100 nM. In the case of `Nc1nccn2c([C@@H]3CCCN3C(=O)c3ccnc(Cl)n3)nc(-c3ccc(C(=O)Nc4nc5c(s4)CCCC5)cc3)c12` [Example 71, (S)-4-(8-amino-3-(1-(2-chloropyrimidine-4-carbonyl)pyrrolidin-2-yl)imidazo[1,5-a]pyrazin-1-yl)-N-(4,5,6,7-tetrahydrobenzo[d]thiazol-2-yl)benzamide], the “EC50 Btk activity values” is reported as under 100 nM. With `CN(C)C/C=C/C(=O)N1CCCC[C@H]1c1nc(-c2ccc(C(=O)Nc3cccnn3)cc2)c2c(N)nccn12` [Example 73, (S,E)-4-(8-amino-3-(1-(4-(dimethylamino)but-2-enoyl)piperidin-2-yl)imidazo[1,5-a]pyrazin-1-yl)-N-(pyridazin-3-yl)benzamide] the “EC50 Btk activity values” was under 100 nM. In the case of `CN(C)C/C=C/C(=O)NCc1nc(-c2ccc(C(=O)Nc3ccccn3)cc2)c2c(N)nccn12` [Example 69, (E)-4-(8-amino-3-((4-(dimethylamino)but-2-enamido)methyl)imidazo[1,5-a]pyrazin-1-yl)-N-(pyridin-2-yl)benzamide], the “EC50 Btk activity values” is reported as under 100 nM. For `COC/C=C/C(=O)N1CCC[C@H]1c1nc(-c2ccc(C(=O)Nc3ccccn3)c(OC)c2)c2c(N)nccn12` [Example 103, (S,E)-4-(8-amino-3-(1-(4-methoxybut-2-enoyl)pyrrolidin-2-yl)imidazo[1,5-a]pyrazin-1-yl)-2-methoxy-N-(pyridin-2-yl)benzamide], the “EC50 Btk activity values” was under 100 nM. With `CC#CC(=O)N1CCC[C@H]1c1nc(-c2ccc(C(=O)Nc3ccccn3)c(OC)c2)c2c(N)nccn12` [Example 99, (S)-4-(8-amino-3-(1-but-2-ynoylpyrrolidin-2-yl)imidazo[1,5-a]pyrazin-1-yl)-2-methoxy-N-(pyridin-2-yl)benzamide] the “EC50 Btk activity values” was under 100 nM. `CC#CC(=O)N1CCC[C@H]1c1nc(-c2ccc(C(=O)Nc3cc(F)ccn3)cc2)c2c(N)nccn12` [Example 106, (S)-4-(8-amino-3-(1-but-2-ynoylpyrrolidin-2-yl)imidazo[1,5-a]pyrazin-1-yl)-N-(4-fluoropyridin-2-yl)benzamide] was tested, and the “EC50 Btk activity values” was under 100 nM. With `CN(C)C/C=C/C(=O)N1CCC[C@H]1c1nc(-c2ccc(C(=O)Nc3cc(F)ccn3)cc2)c2c(N)nccn12` [Example 7, (S,E)-4-(8-Amino-3-(1-(4-(dimethylamino)but-2-enoyl)pyrrolidin-2-yl)imidazo[1,5-a]pyrazin-1-yl)-N-(4-fluoropyridin-2-yl)benzamide] the “EC50 Btk activity values” was under 100 nM. With `Cc1ccnc(NC(=O)c2ccc(-c3nc([C@@H]4CCCN4C(=O)/C=C/CN(C)C)n4ccnc(N)c34)cc2)c1` [Example 59, (S,E)-4-(8-amino-3-(1-(4-(dimethylamino)but-2-enoyl)pyrrolidin-2-yl)imidazo[1,5-a]pyrazin-1-yl)-N-(4-methylpyridin-2-yl)benzamide] the “EC50 Btk activity values” was under 100 nM. For `CN(C)CC#CC(=O)N1CCC[C@H]1c1nc(-c2ccc(C(=O)Nc3ccccn3)cc2)c2c(N)nccn12` [Example 40, (S)-4-(8-Amino-3-(1-(4-(dimethylamino)but-2-ynoyl)pyrrolidin-2-yl)imidazo[1,5-a]pyrazin-1-yl)-N-(pyridin-2-yl)benzamide], the “EC50 Btk activity values” was under 100 nM. For `COC/C=C/C(=O)N1CCC[C@H]1c1nc(-c2ccc(C(=O)Nc3cc(OC)ccn3)cc2)c2c(N)nccn12` [Example 51, (S,E)-4-(8-amino-3-(1-(4-methoxybut-2-enoyl)pyrrolidin-2-yl)imidazo[1,5-a]pyrazin-1-yl)-N-(4-methoxypyridin-2-yl)benzamide], the “EC50 Btk activity values” was under 100 nM. For `COC/C=C/C(=O)N1CCCC[C@H]1c1nc(-c2ccc(C(=O)Nc3cc(F)ccn3)cc2)c2c(N)nccn12` [Example 81, (S,E)-4-(8-amino-3-(1-(4-methoxybut-2-enoyl)piperidin-2-yl)imidazo[1,5-a]pyrazin-1-yl)-N-(4-fluoropyridin-2-yl)benzamide], the “EC50 Btk activity values” was under 100 nM. With `COC/C=C/C(=O)N1CCC[C@H]1c1nc(-c2ccc(C(=O)Nc3ccccn3)cc2)c2c(N)nccn12` [Example 4, (S,E)-4-(8-amino-3-(1-(4-methoxybut-2-enoyl)pyrrolidin-2-yl)imidazo[1,5-a]pyrazin-1-yl)-N-(pyridin-2-yl)benzamide] the “EC50 Btk activity values” was under 100 nM.

Same assay, conditions: 60 min pre-incubation, 5 μM ATP, bin bounds in μM
For `COC/C=C/C(=O)N1CCCC[C@H]1c1nc(-c2ccc(C(=O)Nc3cccnn3)cc2)c2c(N)nccn12` [Example 72, (S,E)-4-(8-amino-3-(1-(4-methoxybut-2-enoyl)piperidin-2-yl)imidazo[1,5-a]pyrazin-1-yl)-N-(pyridazin-3-yl)benzamide], the “EC50 Btk activity values” was under 1000 nM. For `COC/C=C/C(=O)N1CCC[C@H]1c1nc(-c2ccc(C(=O)Nc3ccccn3)c(F)c2)c2c(N)nccn12` [Example 52], the “EC50 Btk activity values” was under 1000 nM. With `C=CC(=O)N1CCCC[C@H]1c1nc(-c2ccc(C(=O)Nc3ccccn3)cc2C)c2c(N)nccn12` [Example 68, 4-(3-((S)-1-acryloylpiperidin-2-yl)-8-aminoimidazo[1,5-a]pyrazin-1-yl)-3-methyl-N-(pyridin-2-yl)benzamide] the “EC50 Btk activity values” was under 1000 nM. For `Nc1nccn2c([C@@H]3CCCN3C(=O)/C=C/c3ccccc3)nc(-c3ccc(C(=O)Nc4ccccn4)cc3)c12` [Example 104, (S,E)-4-(8-amino-3-(1-cinnamoylpyrrolidin-2-yl)imidazo[1,5-a]pyrazin-1-yl)-N-(pyridin-2-yl)benzamide], the “EC50 Btk activity values” was under 1000 nM. For `COC/C=C/C(=O)N1CCCC[C@H]1c1nc(-c2ccc(C(=O)Nc3nccc(C)n3)cc2)c2c(N)nccn12` [Example 88, (S,E)-4-(8-amino-3-(1-(4-methoxybut-2-enoyl)piperidin-2-yl)imidazo[1,5-a]pyrazin-1-yl)-N-(4-methylpyrimidin-2-yl)benzamide], the “EC50 Btk activity values” was under 1000 nM.

The molecules below were run against Lck enzyme (Homo sapiens (Human), UniProt P06239) (assay: Lck enzyme activity, IMAP fluorescence polarization assay). Details: 60 min pre-incubation, 6 μM ATP, bin bounds in μM.
Sequence of Lck enzyme (P06239 whole entry): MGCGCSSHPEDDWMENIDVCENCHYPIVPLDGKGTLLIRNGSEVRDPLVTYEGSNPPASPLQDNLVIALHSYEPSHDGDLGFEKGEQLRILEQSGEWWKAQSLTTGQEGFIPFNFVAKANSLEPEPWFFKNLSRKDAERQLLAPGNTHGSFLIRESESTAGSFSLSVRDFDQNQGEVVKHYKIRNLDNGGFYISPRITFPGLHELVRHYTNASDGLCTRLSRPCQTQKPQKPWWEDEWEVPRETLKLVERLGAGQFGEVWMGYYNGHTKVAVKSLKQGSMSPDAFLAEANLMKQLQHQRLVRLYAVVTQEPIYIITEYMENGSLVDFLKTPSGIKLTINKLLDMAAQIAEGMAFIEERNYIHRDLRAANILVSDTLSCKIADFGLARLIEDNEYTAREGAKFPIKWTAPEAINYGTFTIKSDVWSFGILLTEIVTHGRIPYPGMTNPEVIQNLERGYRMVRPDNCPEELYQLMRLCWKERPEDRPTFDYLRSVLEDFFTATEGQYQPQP
In the case of `CC#CC(=O)N1CCC[C@H]1c1nc(-c2ccc(C(=O)Nc3cc(-c4ccccc4)ccn3)cc2)c2c(N)nccn12` [Example 132, (S)-4-(8-amino-3-(1-but-2-ynoylpyrrolidin-2-yl)imidazo[1,5-a]pyrazin-1-yl)-N-(4-phenylpyridin-2-yl)benzamide], the “EC50 Lck activity values” is reported as under 1 µM. In the case of `C=CC(=O)N1CCC[C@H]1c1nc(-c2ccc(C(=O)Nc3cc(C#N)ccn3)cc2)c2c(N)nccn12` [Example 122, (S)-4-(3-(1-acryloylpyrrolidin-2-yl)-8-aminoimidazo[1,5-a]pyrazin-1-yl)-N-(4-cyanopyridin-2-yl)benzamide], the “EC50 Lck activity values” is reported as under 1 µM. In the case of `C=CC(=O)N1CCC[C@H]1c1nc(-c2ccc(C(=O)Nc3cc(-c4ccccc4)ccn3)cc2)c2c(N)nccn12` [Example 133, (S)-4-(3-(1-acryloylpyrrolidin-2-yl)-8-aminoimidazo[1,5-a]pyrazin-1-yl)-N-(4-phenylpyridin-2-yl)benzamide], the “EC50 Lck activity values” is reported as under 1 µM. In the case of `C=CC(=O)N1CCC[C@H]1c1nc(-c2ccc(C(=O)Nc3cc(C(F)(F)F)ccn3)cc2)c2c(N)nccn12` [Example 62, (S)-4-(3-(1-acryloylpyrrolidin-2-yl)-8-aminoimidazo[1,5-a]pyrazin-1-yl)-N-(4-(trifluoromethyl)pyridin-2-yl)benzamide], the “EC50 Lck activity values” is reported as under 1 µM. With `CCCc1ccnc(NC(=O)c2ccc(-c3nc([C@H](C)N(C)C(=O)/C=C/CN(C)C)n4ccnc(N)c34)cc2)c1` [Example 76, (S,E)-4-(8-amino-3-(1-(4-(dimethylamino)-N-methylbut-2-enamido)ethyl)imidazo[1,5-a]pyrazin-1-yl)-N-(4-propylpyridin-2-yl)benzamide] the “EC50 Lck activity values” was under 1 µM. In the case of `Nc1nccn2c([C@@H]3CCCN3C(=O)/C=C/c3ccccc3)nc(-c3ccc(C(=O)Nc4ccccn4)cc3)c12` [Example 104, (S,E)-4-(8-amino-3-(1-cinnamoylpyrrolidin-2-yl)imidazo[1,5-a]pyrazin-1-yl)-N-(pyridin-2-yl)benzamide], the “EC50 Lck activity values” is reported as under 1 µM. With `C=CC(=O)N1CCC[C@H]1c1nc(-c2ccc(C(=O)Nc3cc(CC)ccn3)cc2)c2c(N)nccn12` [Example 126, (S)-4-(3-(1-acryloylpyrrolidin-2-yl)-8-aminoimidazo[1,5-a]pyrazin-1-yl)-N-(4-ethylpyridin-2-yl)benzamide] the “EC50 Lck activity values” was under 1 µM. With `CC#CC(=O)N1CCCC[C@H]1c1nc(-c2ccc(C(=O)Nc3cc(CCC)ccn3)cc2)c2c(N)nccn12` [Example 64, (S)-4-(8-amino-3-(1-but-2-ynoylpiperidin-2-yl)imidazo[1,5-a]pyrazin-1-yl)-N-(4-propylpyridin-2-yl)benzamide] the “EC50 Lck activity values” was under 1 µM.

The molecules below were run against Lyn enzyme (Homo sapiens (Human), UniProt P07948) (assay: Lyn enzyme activity, IMAP fluorescence polarization assay). Details: 60 min pre-incubation, 2 μM ATP, bin bounds in μM.
Sequence of Lyn enzyme (P07948 whole entry): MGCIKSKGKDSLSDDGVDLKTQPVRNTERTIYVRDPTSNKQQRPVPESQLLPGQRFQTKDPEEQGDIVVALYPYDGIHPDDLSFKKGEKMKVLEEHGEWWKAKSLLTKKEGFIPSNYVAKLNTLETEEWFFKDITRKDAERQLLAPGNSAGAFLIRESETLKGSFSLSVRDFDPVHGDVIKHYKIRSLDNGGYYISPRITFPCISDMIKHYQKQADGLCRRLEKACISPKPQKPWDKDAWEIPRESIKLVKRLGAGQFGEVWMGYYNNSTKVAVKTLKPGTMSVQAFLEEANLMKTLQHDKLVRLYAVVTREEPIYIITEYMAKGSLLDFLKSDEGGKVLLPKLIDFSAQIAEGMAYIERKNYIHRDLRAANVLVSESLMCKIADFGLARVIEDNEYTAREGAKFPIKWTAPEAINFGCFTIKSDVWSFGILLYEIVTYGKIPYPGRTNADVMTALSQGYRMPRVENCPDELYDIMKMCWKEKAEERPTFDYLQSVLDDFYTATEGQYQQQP
In the case of `C=CC(=O)N1CCC[C@H]1c1nc(-c2ccc(C(=O)Nc3cc(-c4ccccc4)ccn3)cc2)c2c(N)nccn12` [Example 133, (S)-4-(3-(1-acryloylpyrrolidin-2-yl)-8-aminoimidazo[1,5-a]pyrazin-1-yl)-N-(4-phenylpyridin-2-yl)benzamide], the “EC50 Lyn activity values” is reported as under 1 µM. For `C=CC(=O)N1CCC[C@H]1c1nc(-c2ccc(C(=O)Nc3cc(CC)ccn3)cc2)c2c(N)nccn12` [Example 126, (S)-4-(3-(1-acryloylpyrrolidin-2-yl)-8-aminoimidazo[1,5-a]pyrazin-1-yl)-N-(4-ethylpyridin-2-yl)benzamide], the “EC50 Lyn activity values” was under 1 µM.
